Results on five molecules are retold here after article PMC10557067, “Preclinical characterization of tunlametinib, a novel, potent, and selective MEK inhibitor” (Frontiers in Pharmacology, 2023).

Series [1] deals with A549. Kind of series: Cell proliferation assay (MTT/MTS). The following applies: Homo sapiens, A549, read-out: IC50 ± SEM.
Experimental: (§1) All cell lines were authenticated by short tandem repeat analysis and maintained following the ATCC instructions. […] Anti-proliferation activity was analyzed using the 3-(4,5-dimethylthiazole-2-yl)-2,5-diphenyl-2H-tetrazolium bromide (MTT) or (3-(4,5-dimethylthiazol-2-yl)-5-(3-carboxymethoxyphenyl)-2 -(4-sulfophenyl)-2H-tetrazolium) (MTS) assay.
(§2) Cells were seeded into 96-well plates at an appropriate density, and 24 h later, diluted drug in different concentrations was added to each test well in triplicate. The cell viability was tested 5 days (H358 was analyzed for 7 days) after the cells were plated according to the procedure originally described by Mosmann [1]. Survival rate was calculated using the formula: Survival rate = (Mean absorbance of experimental wells-Mean absorbance of DMSO wells) / (Mean absorbance of control wells-Mean absorbance of DMSO wells) × 100%. IC50 was determined from the regression of a plot of the logarithm of the concentration versus survival rate by GraphPad Prism 6 using the non-linear regression Dose–Response Inhibition (four parameters) Model.
The subject of series [2] is H1975. Kind of series: Cell proliferation assay (MTT/MTS). The following applies: Homo sapiens, NCI-H1975, read-out: IC50 ± SEM.
Experimental: as §1
(§3) A375, HT-29 and Calu-6 cell lines were purchased from the typical culture preservation commission cell bank of the Chinese Academy of Sciences in China. […] H358 cell line was obtained from EK-bioscience. Cells were seeded into 96-well plates at an appropriate density, and 24 h later, diluted drug in different concentrations was added to each test well in triplicate. The cell viability was tested 5 days (H358 was analyzed for 7 days) after the cells were plated according to the procedure originally described by Mosmann [1]. Survival rate was calculated using the formula: Survival rate = (Mean absorbance of experimental wells-Mean absorbance of DMSO wells) / (Mean absorbance of control wells-Mean absorbance of DMSO wells) × 100%. IC50 was determined from the regression of a plot of the logarithm of the concentration versus survival rate by GraphPad Prism 6 using the non-linear regression Dose–Response Inhibition (four parameters) Model.
Series [3] deals with COLO 205. Kind of series: Cell proliferation assay (MTT/MTS). Conditions: Homo sapiens, COLO 205, read-out: IC50 ± SEM.
Experimental: as §1, §3
The test system of series [4] is Colo-829. The series can be described thus: Cell proliferation assay (MTT/MTS). Conditions: Homo sapiens, COLO-829, read-out: IC50 ± SEM.
Experimental: as §1, §2
Series [5] deals with HL-60. Kind of series: Cell proliferation assay (MTT/MTS). Conditions: Homo sapiens, HL-60, read-out: IC50 ± SEM.
Experimental: as §1, §3
The test system of series [6] is COLO 205 cells. The series can be described thus: Apoptosis assay by flow cytometry. The following applies: 48 h, control 21.9%. For orientation: Flow cytometry measures light scatter and fluorescence of single cells or particles in a stream.
Experimental: (§4) Cell lines were inoculated at the density of 2×10^4 cells per well in a 6-well plate and cultured overnight. […] The cell cycle or apoptosis analysis was performed by flow cytometry.
(§5) Tumor cell lines were inoculated in 6-well plates at a density of 2×10^4 cells/well. […] Both apoptosis and cell cycle were measured by flow cytometry (Accuri C6, BD biosciences).
Series [7] concerns A375 cells. Kind of series: Apoptosis assay by flow cytometry. Conditions: 48 h.
Experimental: as §4, §5
In series [8] the test system is Calu-6. The series can be described thus: Cell proliferation assay (MTT/MTS). The following applies: Homo sapiens, Calu-6, read-out: IC50 ± SEM.
Experimental: as §1, §2
Series [9] relates to MRC-5. Kind of series: Cell proliferation assay (MTT/MTS). Conditions: Homo sapiens, MRC5, read-out: IC50 ± SEM.
Experimental: as §1, §3
Series [10] concerns A375. The series can be described thus: Cell proliferation assay (MTT/MTS). The following applies: Homo sapiens, A-375, read-out: IC50 ± SEM.
Experimental: as §1, §3
For series [11], the system named is HT-29. The series can be described thus: Cell proliferation assay (MTT/MTS). The following applies: Homo sapiens, HT-29, read-out: IC50 ± SEM.
Experimental: as §1, §2
In series [12] the test system is hERG channel. Also on record: method as in Food and Drug Administration, 2015. Conditions: ref Food and Drug Administration, 2015; cited from earlier work.
In series [13] the target is MEK1 kinase. Set-up: method as in Iverson et al., 2009. The following applies: ref Iverson et al., 2009; cited from earlier work.
In series [14] the target is MEK2 kinase. Also on record: method as in Iverson et al., 2009. The following applies: ref Iverson et al., 2009; cited from earlier work.
On the set-up of series [15]: method as in Infante et al., 2012. The following applies: requires DMSO as co-solvate; ref Infante et al., 2012; cited from earlier work.
For series [16] the following is noted: cited from earlier work.
Series [17] concerns the target MEK1/MAP2K1(h) (Homo sapiens, UniProt Q02750). The series can be described thus: MEK1 inhibition, comparison of tunlametinib and MEK162 (Caliper EZ Reader).
Experimental: Kinase inhibition activity against MEK1 was conducted in Cerep (France) and Sundia (Shanghai, China).
The signals were measured using Caliper EZ Reader and the data were analyzed.

Chain of MEK1/MAP2K1(h) (Q02750 whole entry): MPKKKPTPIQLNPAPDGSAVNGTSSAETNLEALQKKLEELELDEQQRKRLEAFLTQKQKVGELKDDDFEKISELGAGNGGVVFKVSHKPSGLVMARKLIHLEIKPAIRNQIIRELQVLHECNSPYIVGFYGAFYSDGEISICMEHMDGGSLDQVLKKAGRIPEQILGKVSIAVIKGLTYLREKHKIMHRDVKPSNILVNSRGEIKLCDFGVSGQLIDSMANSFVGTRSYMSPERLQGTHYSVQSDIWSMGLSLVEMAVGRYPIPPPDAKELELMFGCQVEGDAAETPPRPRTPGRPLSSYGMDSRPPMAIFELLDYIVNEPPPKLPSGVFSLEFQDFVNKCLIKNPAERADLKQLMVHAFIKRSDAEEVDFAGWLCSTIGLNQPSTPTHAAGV

A word on the IC50: it is the concentration that inhibits the measured activity by half. For the molecule `Cn1cnc2c(F)c(Nc3ccc(Br)cc3Cl)c(C(=O)NOCCO)cc21` [AZD6244, selumetinib], the IC50 in [1] was 5730 ± 1030 nM; in [2], over 50000 nM; in series [3], 54.3 ± 2.21 nM; in series [4], 301 ± 88.8 nM; in series [5], 35.3 ± 20.9 nM; in [8] it was 2310 ± 204 nM. Besides, the concentration for half-maximal inhibition (IC50) in series [9] is over 50000 nM; in [10] it was 67.52 ± 0.07 nM; in [11], 175 ± 19.3 nM. Besides, the apoptosis rate in series [6] (1 μM) came to 40.6%. In series [7], the apoptosis-inducing effect entry was “no significant apoptosis-inducing effect”.

Regarding `O=C(c1ccc(F)c(F)c1Nc1ccc(I)cc1F)N1CC(O)([C@@H]2CCCCN2)C1` [Cobimetinib, cobimetinib], the IC50 in series [12] is 500 nM.

Turning to `COc1cc(F)c(F)c(Nc2ccc(I)cc2F)c1NS(=O)(=O)C1(C[C@H](O)CO)CC1` [REDA119], the IC50 in series [13] was 19 nM; in series [14], 47 nM.

In the case of `CC(=O)Nc1cccc(-n2c(=O)n(C3CC3)c(=O)c3c(Nc4ccc(I)cc4F)n(C)c(=O)c(C)c32)c1` [GSK212, trametinib], the 50% inhibitory concentration (IC50) in series [1] was 45.4 ± 4.76 nM; in [2], over 1000 nM; in [3], 0.74 ± 0.02 nM; in [4], 1.78 nM; in series [5], 0.6 ± 0.28 nM; in [8] it was 10.56 ± 0.07 nM. Moreover, the IC50 in [9] was over 1000 nM; in series [10] it was 0.74 ± 0.01 nM; in [11], 1.45 ± 0.2 nM. Also, the solubility property result in [15] is on record as “poor solubility”. Besides, the apoptosis rate in series [6] (20 nM) turned out to be 47.0%. Further, the apoptosis-inducing effect entry in series [7] was “no significant apoptosis-inducing effect”. In addition, in series [16] (ref Infante et al., 2012), the drug accumulation is about 6 fold. The “mean accumulation ratio (day15/day1)” value in series [16] (repeat dose of 2 mg, ref Food and Drug Administration, 2013) is recorded as about 6.0.

In series [17], `Cn1cnc2c(F)c(Nc3ccc(Br)cc3F)c(C(=O)NOCCO)cc21` [MEK162, binimetinib] yielded an IC50 of 224 ± 16.9 nM.
